Assay results published in patent US20230348419A1, “BIAMINOQUINOLINES AND NANOFORMULATIONS FOR CANCER TREATMENT” (The Regents of the University of California, priority 2019, published 2023).
Where two headings read alike, the source gives them in different places.

How the values were obtained:
[1] = system: HCT116; experiment: MTS cell viability assay; format: cell-based; settings: Homo sapiens, HCT-116, 48 h; read-out: IC50 values from the 48 h MTS assay (μM) HCT116
Description: (§1) Cell line and cell culture. The human pancreatic cancer cell lines (MIA PaCa-2, BXPC3, and PANC-1) were originally purchased from ATCC and were kindly provided by Dr. Shiro Urayama's Lab. HT29, HCT116, H460, MCF7, NIH/3T3, and IMR-90 cell lines were purchased from ATCC. Bone marrow cells were collected from the leg bone marrows of FVB/N mice. All the cells were cultured at 37° C. in a humidified atmosphere of 5% CO2/95% air using the corresponding medium supplemented with 10% fetal bovine serum, […] according to ATCC protocol. All the cell lines have been tested for mycoplasma contamination routinely.
(§2) Cell viability, cell growth and colony formation. Cell viability was assessed by the MTS assay. Briefly, cells in 96-well plates (4,000 cell per well) were treated as indicated, followed by the incubation with MTS regents for 4 h. OD values (490 nm) were determined via a microplate reader. Results were shown as the average cell viability calculated from the formula of [(ODtreat−ODblank)/(ODcontrol−ODblank)×100%]. Drug combination data were analyzed by Combenefit 2.02. In cell growth assay, cells in 6-well plates (50,000 cell per well) were treated as indicated and were counted manually every 24 h. Colony formation assay was also performed on 6-well plates with a starting density of 1,000-2,000 cells per well. After incubated as indicated for 10-20 days, cells were washed with PBS and stained with the solution of crystal violet and methanol for 20 min.

[2] = system: HT29 tumours; experiment: HT29 xenograft model; settings: mice bearing HT29 tumours
[3] = Drug loading using BAQ13 NPs; format: physicochemical; settings: for PDI / Size/diameter: BAQ13 NPs loaded with the drug or dye; for Encapsulation efficiency / Drug-loading content: drug or dye loaded in BAQ13 NPs; for Drug-loading content: mass ratio
Description: (§3) Preparation and characterization of BAQ ONNs. NPs were prepared through the re-precipitation method. BAQ derivatives in methanol were added dropwise into MilliQ water while stirring for 5 min (volume ratio, 1:10), and then homogenous NPs were obtained after rotary evaporation (40° C., 20 min), followed by the characterization with Zetasizer Nano ZS (Malvern). The TEM samples were prepared by dropping 0.5 mM NPs on carbon square mesh and dried naturally, which were then observed under the Talos L120C TEM (FEI) at an accelerating voltage of 80 kV. To determine the drug content in nanoformulations, the prepared drug-loaded NPs were cut off by centrifugal filter (ultracel-10 kDa, Millipore), and the absorbance of filtrate (diluted with DMSO, 1:10, volume ratio) was measured for calculation of drug concentrations.
Next investigation was whether liposome-like BAQ ONNs can encapsulate additional agents. Upon nanoprecipitation of BAQ13 and various agents, homogeneous NPs with monomodal size distributions spontaneously formed (Table 2 and FIG. 9G).

[4] = system: MIA PaCa-2; experiment: MTS cell viability assay; format: cell-based, human; settings: read-out: IC50 (μM) in the 24 h treatment MIA PaCa-2
Description: as §1, §2

[5] = system: HT29; experiment: MTS cell viability assay; format: cell-based; settings: read-out: IC50 (μM) in the 24 h treatment HT29
Description: as §1, §2

[6] = Nanoparticle characterization of BAQ NPs (DLS, TEM); format: physicochemical; settings: assembled NPs in water; for PDI / Size (nm): DLS
Description: as §3

[7] = system: BXPC-3; experiment: MTS cell viability assay; format: cell-based, human; settings: 24 h; read-out: IC50 (μM) in the 24 h treatment BXPC-3
Description: as §1, §2

[8] = system: PANC-1; experiment: MTS cell viability assay; format: cell-based, human; settings: 24 h; read-out: IC50 (μM) in the 24 h treatment PANC-1
Description: as §1, §2

[9] = system: H460; experiment: MTS cell viability assay; format: cell-based; settings: 24 h; read-out: IC50 (μM) in the 24 h treatment H460
Description: as §1, §2

[10] = system: MCF-7; experiment: MTS cell viability assay; format: cell-based; settings: 24 h; read-out: IC50 (μM) in the 24 h treatment MCF-7
Description: as §1, §2

[11] = system: various cancer cell lines; experiment: Preliminary MTS screening, 24 h; format: cell-based; settings: 24 h MTS
Description: To verify the therapeutic effects of BAQ12-BAQ18, a preliminary screening was conducted using an MTS assay on various cancer cell lines. […] This decrease was due to gradual declines in the detergence and H^+ buffering capacity of compounds. Based on the results above, BAQ12 and BAQ13 were then selected as representatives for construction of BAQ ONNs in the following studies.
as §2

[12] = system: three pancreatic cancer cell lines (MIA PaCa-2, BxPC-3, and PANC-1) and two colon cancer cell lines (HT29 and HCT116); experiment: 48 h MTS assay on pancreatic and colon cancer cell lines; format: cell-based
Description: as §2
In vitro antitumour activity of BAQ derivatives. To systematically investigate the antitumour effects in vitro, three pancreatic cancer cell lines (MIA PaCa-2, BxPC-3, and PANC-1) and two colon cancer cell lines (HT29 and HCT116) were selected for a 48 h MTS assay. […] The improved anticancer activity of BAQ ONNs is attributable to their multiple functions in inducing LMP, lysosomal dysfunction and autophagy inhibition in cancer cells; these effects are considered to be important triggers of apoptosis. To examine the proapoptotic effects of BAQ ONNs, apoptosis signals in MIA PaCa-2 and HT29 cells was subsequently detected. […] Lys05, the control, increased apoptotic signals in a concentration-dependent manner, but its effect at a high concentration close to the IC50 was still milder than those of the low concentrations of BAQ ONNs.

[13] = system: MIA PaCa-2 cells; experiment: RNA sequencing, differentially expressed genes; format: cell-based, human; settings: 5 μM, 24 h, vs vehicle
Description: RNA-seq. Total RNA was extracted by the RNeasy Mini Kit (Qiagen, Germany) from the treated MIA PaCa-2 cells (5 μM, 24 h). Samples were submitted to the UC Davis Comprehensive Cancer Center's Genomics Shared Resource (GSR) for RNA-Seq analysis. Stranded RNA-Seq libraries were prepared from 100 ng total RNA using the NEBNext Ultra Directional RNA Library Prep Kit (New England BioLabs). Subsequently, libraries were combined for multiplex sequencing on an Illumina HiSeq 4000 System (2×150 bp, paired-end, >20×10^6 reads per sample). The data of normalized genes read counts were analyzed using fold change and t test. The Differentially expressed genes (DEGs) were collected for the signaling pathways enrichment by Funrich software 3.1.3. The gene sets were from MSigDB database (Broad Institute). GSEA was performed using GSEA version 3.0 in KEGG gene sets category online, with the following parameters: n=1,000 permutations, where p-adjust <0.05, and FDR <0.05 were considered significant.

[14] = system: Red blood cells; experiment: pH-dependent haemolysis test; format: cell-based; settings: whole pH range, same concentration (50 μM, 4 h)
[15] = Titration with hydrochloric acid (pH buffering capacity); format: physicochemical; settings: 1 mM, 0.1 M HCl

Row | Compound | PDI [3] | Size/diameter [3] [nm] | Encapsulation efficiency [3] [%] | Drug-loading content [3] [%] | Zeta Potential (mV) [6] [mV] | PDI [6] | Size (nm) [6] [nm] | IC50 [7] [µM] | IC50 ([4]; 24 h) [µM] | IC50 [8] [µM] | IC50 [9] [µM] | IC50 ([5]; 24 h) [µM] | IC50 [10] [µM] | other results
1 | CCc1c2c(nc3ccc(OC(=O)N4CCC(N5CCCCC5)CC4)cc13)-c1cc3c(c(=O)n1C2)COC(=O)[C@]3(O)CC [Irinotecan] |  |  |  |  |  |  |  |  |  |  |  |  |  | IC50 [1]: 17 ± 1 µM; Median Survival ([2]; survival analysis in text): 36 days; Median Survival ([2]; treatment terminated on the 24th day): 36 days
2 | COc1ccc(-c2nc(-c3cc(C(F)(F)F)cc(C(F)(F)F)c3)n(Cc3ccc(C(N)=O)cc3)c2-c2ccc(OC)cc2)cc1 [Apoptozole] | 0.099 | 85 | 93 | 50 |  |  |  |  |  |  |  |  |  | 
3 | COc1cc([C@@H]2c3cc4c(cc3[C@@H](O[C@@H]3O[C@@H]5CO[C@@H](C)O[C@H]5[C@H](O)[C@H]3O)[C@H]3COC(=O)[C@H]23)OCO4)cc(OC)c1O [Etoposide] | 0.104 | 69 | 86 | 50 |  |  |  |  |  |  |  |  |  | 
4 | CCN(CCO)CCCC(C)Nc1ccnc2cc(Cl)ccc12 (centres unmarked) [HCQ, hydroxychloroquine] |  |  |  |  |  |  |  |  |  |  |  |  |  | IC50 ([4]; Homo sapiens, MIA PaCa-2, 24 h): 79.6 ± 8.5 µM; IC50 ([5]; Homo sapiens, HT-29, 24 h): > 75 µM
5 | CC[C@]1(O)C[C@@H]2CN(CCc3c([nH]c4ccccc34)[C@@](C(=O)OC)(c3cc4c(cc3OC)N(C)[C@H]3[C@@](O)(C(=O)OC)[C@H](OC(C)=O)[C@]5(CC)C=CCN6CC[C@]43[C@@H]65)C2)C1 [Vinblastine] | 0.133 | 60 | 95 | 50 |  |  |  |  |  |  |  |  |  | 
6 | Cc1sc2c(c1C)C(c1ccc(Cl)cc1)=N[C@@H](CC(=O)OC(C)(C)C)c1nnc(C)n1-2 [JQ1] | 0.048 | 110 | 92 | 50 |  |  |  |  |  |  |  |  |  | 
7 | CCCCCCCCCCCCNC(=O)[C@@H](N)COC.Cl [MSDH, O-Methyl-Serine-Dodecylamide Hydrochloride] |  |  |  |  |  |  |  |  |  |  |  |  |  | IC50 ([4]; Homo sapiens, MIA PaCa-2, 24 h): 55.5 ± 7.1 µM; IC50 ([5]; Homo sapiens, HT-29, 24 h): 30.3 ± 4.8 µM; haemolytic response to pH [14]: only a weak haemolytic response to pH; pH plateau upon titration with HCl [15]: 6.2
8 | Nc1cccc2c1CN(C1CCC(=O)NC1=O)C2=O (centres unmarked) [Lenalidomide] | 0.069 | 85 | 88 | 50 |  |  |  |  |  |  |  |  |  | 
9 | CC(C)C[C@H](NC(=O)[C@H](Cc1ccccc1)NC(=O)c1cnccn1)B(O)O [Bortezomib] | 0.09 | 92 | 89 | 50 |  |  |  |  |  |  |  |  |  | 
10 | CC1(C)CCC2=C(O1)c1ccccc1C(=O)C2=O [β-lapachone] | 0.047 | 128 | 95 | 33 |  |  |  |  |  |  |  |  |  | 

Further lines, with some results ahead:

Row | PDI [3] | Size/diameter [3] [nm] | Encapsulation efficiency [3] [%] | Drug-loading content [3] [%] | Zeta Potential (mV) [6] [mV] | PDI [6] | Size (nm) [6] [nm] | IC50 [7] [µM] | IC50 ([4]; 24 h) [µM] | IC50 [8] [µM] | IC50 [9] [µM] | IC50 ([5]; 24 h) [µM] | IC50 [10] [µM] | Compound | other results
11 |  |  |  |  | 39.7 ± 1.9 | 0.097 | 99.1 ± 2.1 | 3.1 ± 0.2 | 4.2 ± 1 | 4.3 ± 1 | 2.2 ± 0.4 | 3 ± 1.1 | 3.7 ± 0.3 | CCCCCCCCCCCCCN(CCNc1ccnc2cc(Cl)ccc12)CCNc1ccnc2cc(Cl)ccc12 [BAQ13] | fold higher potency than HCQ [11]: ~20 fold; fold higher potency than Lys05 [11]: ~3 fold; fold higher potency than MSDH [11]: ~10 fold; effect alone versus combination treatment with Lys05 and MSDH [12]: more effective than combination treatment with Lys05 and MSDH; fold more potent than HCQ [12]: 30 fold; downregulated genes [13]: 181; upregulated genes [13]: 209; differentially expressed genes (DEGs) ([13]; fold change≥2 and p value≤0.05): 390
12 |  |  |  |  | 39.5 ± 0.8 | 0.093 | 96.7 ± 1.6 | > 90 | > 90 | > 90 | > 90 | > 100 | > 90 | CCCCCCCCCCCCCCCCCCN(CCNc1ccnc2cc(Cl)ccc12)CCNc1ccnc2cc(Cl)ccc12 [BAQ18] | 
13 |  |  |  |  | 38.0 ± 2.9 | 0.086 | 107.3 ± 2.6 | 17.2 ± 2 | 42 ± 11.7 | 34.5 ± 3.9 | 24.1 ± 0.4 | 16.1 ± 2.5 | > 60 | CCCCCCCCCCCCCCCN(CCNc1ccnc2cc(Cl)ccc12)CCNc1ccnc2cc(Cl)ccc12 [BAQ15] | 
14 |  |  |  |  | 39.1 ± 0.4 | 0.069 | 137.9 ± 4.6 | 7.5 ± 0.7 | 16 ± 1.8 | 10.4 ± 1.8 | 24 ± 0.3 | 9.6 ± 2 | 28.5 ± 3.5 | CCCCCCCCCCCCCCN(CCNc1ccnc2cc(Cl)ccc12)CCNc1ccnc2cc(Cl)ccc12 [BAQ14] | 
15 |  |  |  |  | 40.4 ± 0.5 | 0.082 | 119.7 ± 2.1 | 27.6 ± 2.8 | 60.7 ± 13.9 | > 90 | > 90 | > 80 | > 90 | CCCCCCCCCCCCCCCCN(CCNc1ccnc2cc(Cl)ccc12)CCNc1ccnc2cc(Cl)ccc12 [BAQ16] | 
16 |  |  |  |  | 36.4 ± 1.5 | 0.069 | 102.5 ± 3.1 | 2.9 ± 0.6 | 4.1 ± 0.8 | 4.5 ± 0.9 | 2.7 ± 0.5 | 3.5 ± 1.2 | 3.1 ± 0.1 | CCCCCCCCCCCCN(CCNc1ccnc2cc(Cl)ccc12)CCNc1ccnc2cc(Cl)ccc12 [BAQ12] | fold higher potency than HCQ [11]: ~20 fold; fold higher potency than Lys05 [11]: ~3 fold; fold higher potency than MSDH [11]: ~10 fold; effect alone versus combination treatment with Lys05 and MSDH [12]: more effective than combination treatment with Lys05 and MSDH; fold more potent than HCQ [12]: 30 fold
